Data published in PMC10066365, “Nemacol is a small molecule inhibitor of C. elegans vesicular acetylcholine transporter with anthelmintic potential” (Nature Communications, 2023).
Values joined by “and” are separate entries in the source; they are usually repeats but may differ in a detail not shown here. Identical values can stand only once.

Tested on: C. elegans
Assay: C. elegans motor phenotype scoring on solid media (Punc/jerky-unc, coiled, paralyzed), wild-type young adults
Type: in vivo, Caenorhabditis elegans
Conditions: for any phene, mean % fraction of young adults exhibiting any phenotype (coiled, jerky-Unc or paralyzed) / atypical locomotion (number of animals) / coiled (number of animals) / no phene (number of animals) / paralyzed (number of animals): one hour; for any phene, mean % fraction of young adults exhibiting any phenotype (coiled, jerky-Unc or paralyzed): mean of three biological replicates; for atypical locomotion (number of animals) / coiled (number of animals) / no phene (number of animals) / paralyzed (number of animals): young adults, 20 animals per trial, single replicate counts; for AVERAGES Fraction Coiled / AVERAGES Fraction Paralyzed / AVERAGES Fraction Punc: mean of 3 replicates; for Fraction Coiled / Fraction Paralyzed / Fraction Punc: single replicate

CCC1CCC(N2CCN(c3ccc([N+](=O)[O-])cc3)CC2)CC1 (stereo not shown) [Nemacol-2]
any phene, mean % fraction of young adults exhibiting any phenotype (coiled, jerky-Unc or paralyzed) (3.75uM): 29.1667%
atypical locomotion (number of animals) (3.75uM): 5 and 8 and 2 and 3 and 9
coiled (number of animals) (3.75uM): 0
no phene (number of animals) (3.75uM): 15 and 12 and 18 and 17 and 11
paralyzed (number of animals) (3.75uM): 0
NP (number of animals) (15 μM, 30 min, adults): 5 and 7 and 10
P (number of animals) (15 μM, 30 min, adults): 0
Punc (number of animals) (15 μM, 30 min, adults): 10 and 9 and 8
AVERAGES Fraction Coiled (15 μM, 30 min, adults): 0.0926
AVERAGES Fraction Paralyzed (15 μM, 30 min, adults): 0.0
AVERAGES Fraction Punc (15 μM, 30 min, adults): 0.5
Fraction Coiled (15 μM, 30 min, adults): 0.167 and 0.111 and 0.0
Fraction Paralyzed (15 μM, 30 min, adults): 0.0
Fraction Punc (15 μM, 30 min, adults): 0.556 and 0.5 and 0.444
C2 (number of animals) (15 μM, 60 min, adults): 2 and 1
P (number of animals) (15 μM, 60 min, adults): 0
Punc (number of animals) (15 μM, 60 min, adults): 14 and 15
AVERAGES Fraction Coiled (15 μM, 60 min, adults): 0.13
AVERAGES Fraction Paralyzed (15 μM, 60 min, adults): 0.0
AVERAGES Fraction Punc (15 μM, 60 min, adults): 0.8
Fraction Coiled (15 μM, 60 min, adults): 0.111 and 0.167
Fraction Paralyzed (15 μM, 60 min, adults): 0.0
Fraction Punc (15 μM, 60 min, adults): 0.8
C2 (number of animals) (15 μM, 90 min, adults): 1 and 2
P (number of animals) (15 μM, 90 min, adults): 0
Punc (number of animals) (15 μM, 90 min, adults): 15 and 11
AVERAGES Fraction Coiled (15 μM, 90 min, adults): 0.113
AVERAGES Fraction Paralyzed (15 μM, 90 min, adults): 0.0
AVERAGES Fraction Punc (15 μM, 90 min, adults): 0.8
Fraction Coiled (15 μM, 90 min, adults): 0.111 and 0.118
Fraction Paralyzed (15 μM, 90 min, adults): 0.0
Fraction Punc (15 μM, 90 min, adults): 0.8 and 0.647
Punc (number of animals) (15 μM, 120 min, adults): 11 and 7
AVERAGES Fraction Coiled (15 μM, 120 min, adults): 0.0741
AVERAGES Fraction Paralyzed (15 μM, 120 min, adults): 0.0185
AVERAGES Fraction Punc (15 μM, 120 min, adults): 0.537
Fraction Coiled (15 μM, 120 min, adults): 0.0556 and 0.111
Fraction Paralyzed (15 μM, 120 min, adults): 0.0 and 0.0556
Fraction Punc (15 μM, 120 min, adults): 0.6 and 0.4
C1 (number of animals) (15 μM, 240 min, adults): 0
C2 (number of animals) (15 μM, 240 min, adults): 0
NP (number of animals) (15 μM, 240 min, adults): 8 and 12 and 15
P (number of animals) (15 μM, 240 min, adults): 0
AVERAGES Fraction Coiled (15 μM, 240 min, adults): 0.037
AVERAGES Fraction Paralyzed (15 μM, 240 min, adults): 0.0741
AVERAGES Fraction Punc (15 μM, 240 min, adults): 0.6
Fraction Coiled (15 μM, 240 min, adults): 0.0 and 0.111
Fraction Paralyzed (15 μM, 240 min, adults): 0.0 and 0.111
Fraction Punc (15 μM, 240 min, adults): 0.556 and 0.6
C1 (number of animals) (15 μM, 360 min, adults): 0
NP (number of animals) (15 μM, 360 min, adults): 14 and 9 and 17
AVERAGES Fraction Coiled (15 μM, 360 min, adults): 0.037
AVERAGES Fraction Paralyzed (15 μM, 360 min, adults): 0.0185
AVERAGES Fraction Punc (15 μM, 360 min, adults): 0.2
Fraction Coiled (15 μM, 360 min, adults): 0.0 and 0.111
Fraction Paralyzed (15 μM, 360 min, adults): 0.0 and 0.0556
Fraction Punc (15 μM, 360 min, adults): 0.222 and 0.333 and 0.0556
Next Day Animals alive (moving fine) (15 μM, next day, adults): alive, recovered
any phene, mean % fraction of young adults exhibiting any phenotype (coiled, jerky-Unc or paralyzed) (15uM): 95.873%
atypical locomotion (number of animals) (15uM): 10 and 11 and 18 and 13
coiled (number of animals) (15uM): 5 and 2 and 4
no phene (number of animals) (15uM): 0 and 2 and 1
paralyzed (number of animals) (15uM): 5 and 2 and 0 and 3
C1 (number of animals) (30 μM, 30 min, adults): 3 and 2
Punc (number of animals) (30 μM, 30 min, adults): 10 and 11 and 16
AVERAGES Fraction Coiled (30 μM, 30 min, adults): 0.246
AVERAGES Fraction Paralyzed (30 μM, 30 min, adults): 0.0185
AVERAGES Fraction Punc (30 μM, 30 min, adults): 0.7
Fraction Coiled (30 μM, 30 min, adults): 0.333 and 0.3 and 0.111
Fraction Paralyzed (30 μM, 30 min, adults): 0.0556 and 0.0
Fraction Punc (30 μM, 30 min, adults): 0.556 and 0.647 and 0.9
NP (number of animals) (30 μM, 60 min, adults): 0
Punc (number of animals) (30 μM, 60 min, adults): 7 and 8 and 13
AVERAGES Fraction Coiled (30 μM, 60 min, adults): 0.3
AVERAGES Fraction Paralyzed (30 μM, 60 min, adults): 0.167
AVERAGES Fraction Punc (30 μM, 60 min, adults): 0.5
Fraction Coiled (30 μM, 60 min, adults): 0.4 and 0.333 and 0.222
Fraction Paralyzed (30 μM, 60 min, adults): 0.222 and 0.0556
Fraction Punc (30 μM, 60 min, adults): 0.4 and 0.444 and 0.7
NP (number of animals) (30 μM, 90 min, adults): 0
P (number of animals) (30 μM, 90 min, adults): 5 and 3
Punc (number of animals) (30 μM, 90 min, adults): 8 and 10 and 12
AVERAGES Fraction Coiled (30 μM, 90 min, adults): 0.241
AVERAGES Fraction Paralyzed (30 μM, 90 min, adults): 0.2
AVERAGES Fraction Punc (30 μM, 90 min, adults): 0.556
Fraction Coiled (30 μM, 90 min, adults): 0.278 and 0.167
Fraction Paralyzed (30 μM, 90 min, adults): 0.278 and 0.167
Fraction Punc (30 μM, 90 min, adults): 0.444 and 0.556 and 0.667
C1 (number of animals) (30 μM, 120 min, adults): 3 and 2
C2 (number of animals) (30 μM, 120 min, adults): 1 and 2
NP (number of animals) (30 μM, 120 min, adults): 0
AVERAGES Fraction Coiled (30 μM, 120 min, adults): 0.2
AVERAGES Fraction Paralyzed (30 μM, 120 min, adults): 0.278
AVERAGES Fraction Punc (30 μM, 120 min, adults): 0.5
Fraction Coiled (30 μM, 120 min, adults): 0.222 and 0.167
Fraction Paralyzed (30 μM, 120 min, adults): 0.556 and 0.222 and 0.0556
Fraction Punc (30 μM, 120 min, adults): 0.222 and 0.6 and 0.7
NP (number of animals) (30 μM, 240 min, adults): 2 and 3 and 4
P (number of animals) (30 μM, 240 min, adults): 4 and 2
Punc (number of animals) (30 μM, 240 min, adults): 11 and 12
AVERAGES Fraction Coiled (30 μM, 240 min, adults): 0.0556
AVERAGES Fraction Paralyzed (30 μM, 240 min, adults): 0.148
AVERAGES Fraction Punc (30 μM, 240 min, adults): 0.6
Fraction Coiled (30 μM, 240 min, adults): 0.0556 and 0.111 and 0.0
Fraction Paralyzed (30 μM, 240 min, adults): 0.222 and 0.111
Fraction Punc (30 μM, 240 min, adults): 0.6 and 0.667
C2 (number of animals) (30 μM, 360 min, adults): 0
NP (number of animals) (30 μM, 360 min, adults): 6 and 9 and 10
Punc (number of animals) (30 μM, 360 min, adults): 5 and 7 and 8
AVERAGES Fraction Coiled (30 μM, 360 min, adults): 0.0196
AVERAGES Fraction Paralyzed (30 μM, 360 min, adults): 0.135
AVERAGES Fraction Punc (30 μM, 360 min, adults): 0.376
Fraction Coiled (30 μM, 360 min, adults): 0.0588 and 0.0
Fraction Paralyzed (30 μM, 360 min, adults): 0.3 and 0.111 and 0.0
Fraction Punc (30 μM, 360 min, adults): 0.3 and 0.4 and 0.444
C1 (number of animals) (60 μM, 30 min, adults): 3 and 4
C2 (number of animals) (60 μM, 30 min, adults): 2
NP (number of animals) (60 μM, 30 min, adults): 0
Punc (number of animals) (60 μM, 30 min, adults): 7 and 10 and 12
AVERAGES Fraction Coiled (60 μM, 30 min, adults): 0.3
AVERAGES Fraction Paralyzed (60 μM, 30 min, adults): 0.154
AVERAGES Fraction Punc (60 μM, 30 min, adults): 0.545
Fraction Coiled (60 μM, 30 min, adults): 0.3 and 0.333 and 0.278
Fraction Paralyzed (60 μM, 30 min, adults): 0.3 and 0.111 and 0.0556
Fraction Punc (60 μM, 30 min, adults): 0.4 and 0.556 and 0.667
C2 (number of animals) (60 μM, 60 min, adults): 2 and 4 and 3
NP (number of animals) (60 μM, 60 min, adults): 0
P (number of animals) (60 μM, 60 min, adults): 9 and 7 and 8
Punc (number of animals) (60 μM, 60 min, adults): 4 and 6
AVERAGES Fraction Coiled (60 μM, 60 min, adults): 0.259
AVERAGES Fraction Paralyzed (60 μM, 60 min, adults): 0.444
AVERAGES Fraction Punc (60 μM, 60 min, adults): 0.3
Fraction Coiled (60 μM, 60 min, adults): 0.278 and 0.222
Fraction Paralyzed (60 μM, 60 min, adults): 0.5 and 0.4 and 0.444
Fraction Punc (60 μM, 60 min, adults): 0.222 and 0.333
C1 (number of animals) (60 μM, 90 min, adults): 3 and 4
C2 (number of animals) (60 μM, 90 min, adults): 3 and 4
NP (number of animals) (60 μM, 90 min, adults): 0
AVERAGES Fraction Coiled (60 μM, 90 min, adults): 0.37
AVERAGES Fraction Paralyzed (60 μM, 90 min, adults): 0.426
AVERAGES Fraction Punc (60 μM, 90 min, adults): 0.2
Fraction Coiled (60 μM, 90 min, adults): 0.333 and 0.4
Fraction Paralyzed (60 μM, 90 min, adults): 0.6 and 0.222 and 0.444
Fraction Punc (60 μM, 90 min, adults): 0.0556 and 0.4 and 0.167
C1 (number of animals) (60 μM, 120 min, adults): 2
NP (number of animals) (60 μM, 120 min, adults): 0
AVERAGES Fraction Coiled (60 μM, 120 min, adults): 0.3
AVERAGES Fraction Paralyzed (60 μM, 120 min, adults): 0.4
AVERAGES Fraction Punc (60 μM, 120 min, adults): 0.3
Fraction Coiled (60 μM, 120 min, adults): 0.222 and 0.444
Fraction Paralyzed (60 μM, 120 min, adults): 0.6 and 0.333 and 0.278
Fraction Punc (60 μM, 120 min, adults): 0.167 and 0.444 and 0.278
NP (number of animals) (60 μM, 240 min, adults): 0
AVERAGES Fraction Coiled (60 μM, 240 min, adults): 0.167
AVERAGES Fraction Paralyzed (60 μM, 240 min, adults): 0.352
AVERAGES Fraction Punc (60 μM, 240 min, adults): 0.5
Fraction Coiled (60 μM, 240 min, adults): 0.167
Fraction Paralyzed (60 μM, 240 min, adults): 0.6 and 0.222
Fraction Punc (60 μM, 240 min, adults): 0.222 and 0.6
Punc (number of animals) (60 μM, 360 min, adults): 6 and 11 and 10
Remark on animals at 360 min (60 μM, 360 min, adults): look dead
AVERAGES Fraction Coiled (60 μM, 360 min, adults): 0.0556
AVERAGES Fraction Paralyzed (60 μM, 360 min, adults): 0.4
AVERAGES Fraction Punc (60 μM, 360 min, adults): 0.5
Fraction Coiled (60 μM, 360 min, adults): 0.0556 and 0.111 and 0.0
Fraction Paralyzed (60 μM, 360 min, adults): 0.6 and 0.278
Fraction Punc (60 μM, 360 min, adults): 0.333 and 0.6 and 0.556
atypical locomotion (number of animals) (60uM): 3 and 6 and 1
coiled (number of animals) (60uM): 9 and 6 and 3 and 1
no phene (number of animals) (60uM): 0
paralyzed (number of animals) (60uM): 8 and 14 and 18
EC50 (Caenorhabditis elegans, 1 h, Fig. 1, dose-response at 60 min, wild-type young adults, +/- 95% CI, read-out: EC50): 6.6 ± 0.4 µM
